US11535643B2, “Macrolides with modified desosamine sugars and uses thereof” (President and Fellows of Harvard College, priority 2015, dated 2022)
In brackets after ≈: the same amount, converted by molar mass.

Experiments:
Type in all cases: cell-based
[1] = test system: S. aureus; assay: Broth dilution MIC determination (CLSI) against S. aureus strains; conditions: for MIC S. aureus ATCC29213: ATCC29213, Strain No. MP-12; for MIC S. aureus ATCCBAA-977: ATCCBAA-977, Strain No. MP-17; for MIC S. aureus (MRSA) GISA USA600: GISA USA600, Strain No. MP-619 UNT-120; for MIC S. aureus (MRSA) ST-228 cErm: Strain No. MP-513; for MIC S. aureus (MRSA) USA100: USA100, Strain No. MP-618 UNT-096; for MIC S. aureus (MRSA) USA300: USA300, Strain No. MP-549; for MIC S. aureus (MRSA) ermA phenotype: Strain No. MP-620 UNT-146
Excerpt: (§1) Minimum inhibitory concentrations (MICs) for macrolides described herein have been determined for unique strains of S. aureus, S. pneumoniae, S. pyogenes, E. faecalis, E. coli, A. baumannii, K. pneumoniae, P. aeruginosa, and H. influenzae, including several multidrug-resistant strains, with a special focus on macrolide resistant mechanisms. Azithromycin and solithromycin were included as control compounds. CLSI standard procedures for broth dilution MIC determination were used. Data for exemplary compounds described herein is shown in Tables M1-M7 and in Tables N1-N4.

[2] = test system: S. pneumoniae; assay: Broth dilution MIC determination (CLSI) against S. pneumoniae strains; conditions: for MIC S. pneumoniae ATCC49619: ATCC49619, Strain No. MP-21
Excerpt: as §1

[3] = test system: E. faecalis; assay: Broth dilution MIC determination (CLSI) against E. faecalis strains; conditions: for MIC E. faecalis ATCC29212: ATCC29212, Strain No. MP-24; for MIC E. faecalis van resistant: Strain No. UNT-039
Excerpt: as §1

[4] = test system: A. baumannii; assay: Broth dilution MIC determination (CLSI) against A. baumannii strains; conditions: for MIC A. baumannii ATCC19606: ATCC19606, Strain No. MP-15
Excerpt: as §1

[5] = test system: P. aeruginosa; assay: Broth dilution MIC determination (CLSI) against P. aeruginosa strains; conditions: for MIC P. aeruginosa ATCC27853: ATCC27853, Strain No. MP-3; for MIC P. aeruginosa PAO1: PAO1, Strain No. MP-7; for MIC P. aeruginosa PAO1:mex: Strain No. MP-8
Excerpt: as §1

[6] = test system: S. pyogenes; assay: Broth dilution MIC determination (CLSI) against S. pyogenes strains; conditions: for MIC S. pyogenes ATCC19615: ATCC19615, Strain No. MP-19; for MIC S. pyogenes mac resistant: Strain No. MP-625 UNT-014
Excerpt: as §1

[7] = test system: K. pneumoniae; assay: Broth dilution MIC determination (CLSI) against K. pneumoniae strains; conditions: for MIC K. pneumoniae ATCC10031: ATCC10031, Strain No. MP-14
Excerpt: as §1, with “used.” for “used. Data for exemplary compounds described herein is shown in Tables M1-M7 and in Tables N1-N4.”

[8] = test system: E. coli; assay: Broth dilution MIC determination (CLSI) against E. coli strains; conditions: for MIC E. coli ATCC25922: ATCC25922, Strain No. MP-4; for MIC E. coli ATCC25922:tolC: Strain No. MP-9; for MIC E. coli clinical: Strain No. MP541; for MIC E. coli clinical-cErm: Strain No. MP532
Excerpt: as §1

Row | SMILES | MIC S. aureus ATCC29213 [1] [µg/mL] | MIC S. aureus ATCCBAA-977 [1] [µg/mL] | MIC S. aureus (MRSA) GISA USA600 [1] [µg/mL] | MIC S. aureus (MRSA) ST-228 cErm [1] [µg/mL] | MIC S. aureus (MRSA) USA100 [1] [µg/mL] | MIC S. aureus (MRSA) USA300 [1] [µg/mL] | MIC S. aureus (MRSA) ermA phenotype [1] [µg/mL] | MIC S. pneumoniae ATCC49619 [2] [µg/mL] | MIC S. pneumoniae mefA ([2]; Strain No. MP-626 UNT-038) [µg/mL] | MIC S. pneumoniae mefA ([2]; Strain No. MP-627 UNT-039) [µg/mL] | MIC E. faecalis ATCC29212 [3] [µg/mL] | MIC E. faecalis van resistant [3] [µg/mL] | MIC A. baumannii ATCC19606 [4] [µg/mL] | MIC A. baumannii clinical ([4]; Strain No. MP576) [µg/mL] | MIC A. baumannii clinical ([4]; Strain No. MP577) [µg/mL] | MIC P. aeruginosa ATCC27853 [5] [µg/mL] | MIC P. aeruginosa PAO1 [5] [µg/mL] | MIC P. aeruginosa PAO1:mex [5] [µg/mL] | MIC S. pyogenes ATCC19615 [6] [µg/mL] | MIC S. pyogenes mac resistant [6] [µg/mL] | other results
1 | CCC1OC(=O)C(C)C(=O)C(C)C(OC2OC(C)CC(NCC(=O)O)C2O)C(C)(OC)CC(C)CNC(C)C2N(CCCCn3cc(-c4cccc(N)c4)nn3)C(=O)OC12C (stereo not drawn) [FSM-120368] | >64 | >64 | >64 | >64 | >64 | >64 | >64 | 16 (≈ 18.6 µM) | 16 (≈ 18.6 µM) | 8 (≈ 9.32 µM) | >64 | >64 | >64 | >64 | >64 | >64 | >64 | >64 | 8 (≈ 9.32 µM) | 32 (≈ 37.3 µM) | MIC K. pneumoniae ATCC10031 [7]: >64 µg/mL; MIC K. pneumoniae clinical ([7]; Strain No. MP546): >64 µg/mL; MIC K. pneumoniae clinical ([7]; Strain No. MP548): >64 µg/mL; MIC E. coli ATCC25922 [8]: >64 µg/mL; MIC E. coli ATCC25922:tolC [8]: >64 µg/mL; MIC E. coli clinical [8]: >64 µg/mL; MIC E. coli clinical-cErm [8]: >64 µg/mL
2 | C=CCOCC1CC(N(C)C)C(O)C(OC2C(C)C(=O)C(C)C(=O)OC(CC)C3(C)OC(=O)N(CCCCn4cc(-c5cccc(N)c5)nn4)C3C(C)NCC(C)CC2(C)OC)O1 (stereo not drawn) [FSM-120383] | >64 | 64 (≈ 72.4 µM) | >64 | >64 | >64 | >64 | >64 | 0.5 (≈ 0.566 µM) | 0.5 (≈ 0.566 µM) | 0.5 (≈ 0.566 µM) | 8 (≈ 9.05 µM) | >64 | 32 (≈ 36.2 µM) | >64 | 64 (≈ 72.4 µM) | 32 (≈ 36.2 µM) | 64 (≈ 72.4 µM) | 8 (≈ 9.05 µM) | 0.25 (≈ 0.283 µM) | 1 (≈ 1.13 µM) | MIC K. pneumoniae ATCC10031 [7]: 8 µg/mL (≈ 9.05 µM); MIC K. pneumoniae clinical ([7]; Strain No. MP546): >64 µg/mL; MIC K. pneumoniae clinical ([7]; Strain No. MP548): >64 µg/mL; MIC E. coli ATCC25922 [8]: 32 µg/mL (≈ 36.2 µM); MIC E. coli ATCC25922:tolC [8]: 4 µg/mL (≈ 4.52 µM); MIC E. coli clinical [8]: 32 µg/mL (≈ 36.2 µM); MIC E. coli clinical-cErm [8]: >64 µg/mL
